We go through 23 compounds from patent publication US11629146B2, “Substituted [1,2,4]triazolo[4,3-a]pyrazines as modulators of sodium channel activity” (Praxis Precision Medicines, Inc., priority 2016, dated 2023).

The assay deals with human NaV1.6 (hNaV1.6) (Homo sapiens (Human), UniProt Q9UQD0). As to the kind of experiment: INaL inhibition at hNaV1.6, PatchXpress electrophysiology. Type of assay: cell-based. The method, then: Functional characterization of exemplary compounds to modulate INaL expressed by the Nay 1.6 voltage-gated sodium channel was accomplished using the PatchXpress™ high throughput electrophysiology platform (Molecular Devices, Sunnyvale, Calif.). HEK-293 cells expressing recombinant, human NaV1.6 (hNaV1.6) were grown in DMEM/high-glucose Dulbecco's modified, 10% FBS, 2 mM sodium pyruvate, 10 mM HEPES and 400 μg/mL G418. Cells were grown to 50%-80% confluency prior to harvesting. […] The onboard liquid handling facility of the PatchXpress was used for dispensing cells and applying test compounds. Nay late currents were evoked by the application of 300 nM ATX-II. […] INaL amplitude and stability were determined by analyzing the mean current amplitude over the final 20 ms of the test pulse. […] Percent steady-state inhibition of INaL was calculated as: [(INaL_compound)/(INaL_control)]*100, where INaL_compound and INaL_control represent INaL recorded in the presence or absence of compound, respectively.

[1] abbreviates: HEK293, 1 μM, HEK-293 cells expressing hNaV1.6, late current evoked by 300 nM ATX-II, read-out: INaL v1.6 (1 μM, % Inhibition).

Like-named read-outs stand apart in the source and are kept apart here. Where only a bound is given, the exact number is not on record here.

human NaV1.6 (hNaV1.6), sequence (Q9UQD0 whole entry): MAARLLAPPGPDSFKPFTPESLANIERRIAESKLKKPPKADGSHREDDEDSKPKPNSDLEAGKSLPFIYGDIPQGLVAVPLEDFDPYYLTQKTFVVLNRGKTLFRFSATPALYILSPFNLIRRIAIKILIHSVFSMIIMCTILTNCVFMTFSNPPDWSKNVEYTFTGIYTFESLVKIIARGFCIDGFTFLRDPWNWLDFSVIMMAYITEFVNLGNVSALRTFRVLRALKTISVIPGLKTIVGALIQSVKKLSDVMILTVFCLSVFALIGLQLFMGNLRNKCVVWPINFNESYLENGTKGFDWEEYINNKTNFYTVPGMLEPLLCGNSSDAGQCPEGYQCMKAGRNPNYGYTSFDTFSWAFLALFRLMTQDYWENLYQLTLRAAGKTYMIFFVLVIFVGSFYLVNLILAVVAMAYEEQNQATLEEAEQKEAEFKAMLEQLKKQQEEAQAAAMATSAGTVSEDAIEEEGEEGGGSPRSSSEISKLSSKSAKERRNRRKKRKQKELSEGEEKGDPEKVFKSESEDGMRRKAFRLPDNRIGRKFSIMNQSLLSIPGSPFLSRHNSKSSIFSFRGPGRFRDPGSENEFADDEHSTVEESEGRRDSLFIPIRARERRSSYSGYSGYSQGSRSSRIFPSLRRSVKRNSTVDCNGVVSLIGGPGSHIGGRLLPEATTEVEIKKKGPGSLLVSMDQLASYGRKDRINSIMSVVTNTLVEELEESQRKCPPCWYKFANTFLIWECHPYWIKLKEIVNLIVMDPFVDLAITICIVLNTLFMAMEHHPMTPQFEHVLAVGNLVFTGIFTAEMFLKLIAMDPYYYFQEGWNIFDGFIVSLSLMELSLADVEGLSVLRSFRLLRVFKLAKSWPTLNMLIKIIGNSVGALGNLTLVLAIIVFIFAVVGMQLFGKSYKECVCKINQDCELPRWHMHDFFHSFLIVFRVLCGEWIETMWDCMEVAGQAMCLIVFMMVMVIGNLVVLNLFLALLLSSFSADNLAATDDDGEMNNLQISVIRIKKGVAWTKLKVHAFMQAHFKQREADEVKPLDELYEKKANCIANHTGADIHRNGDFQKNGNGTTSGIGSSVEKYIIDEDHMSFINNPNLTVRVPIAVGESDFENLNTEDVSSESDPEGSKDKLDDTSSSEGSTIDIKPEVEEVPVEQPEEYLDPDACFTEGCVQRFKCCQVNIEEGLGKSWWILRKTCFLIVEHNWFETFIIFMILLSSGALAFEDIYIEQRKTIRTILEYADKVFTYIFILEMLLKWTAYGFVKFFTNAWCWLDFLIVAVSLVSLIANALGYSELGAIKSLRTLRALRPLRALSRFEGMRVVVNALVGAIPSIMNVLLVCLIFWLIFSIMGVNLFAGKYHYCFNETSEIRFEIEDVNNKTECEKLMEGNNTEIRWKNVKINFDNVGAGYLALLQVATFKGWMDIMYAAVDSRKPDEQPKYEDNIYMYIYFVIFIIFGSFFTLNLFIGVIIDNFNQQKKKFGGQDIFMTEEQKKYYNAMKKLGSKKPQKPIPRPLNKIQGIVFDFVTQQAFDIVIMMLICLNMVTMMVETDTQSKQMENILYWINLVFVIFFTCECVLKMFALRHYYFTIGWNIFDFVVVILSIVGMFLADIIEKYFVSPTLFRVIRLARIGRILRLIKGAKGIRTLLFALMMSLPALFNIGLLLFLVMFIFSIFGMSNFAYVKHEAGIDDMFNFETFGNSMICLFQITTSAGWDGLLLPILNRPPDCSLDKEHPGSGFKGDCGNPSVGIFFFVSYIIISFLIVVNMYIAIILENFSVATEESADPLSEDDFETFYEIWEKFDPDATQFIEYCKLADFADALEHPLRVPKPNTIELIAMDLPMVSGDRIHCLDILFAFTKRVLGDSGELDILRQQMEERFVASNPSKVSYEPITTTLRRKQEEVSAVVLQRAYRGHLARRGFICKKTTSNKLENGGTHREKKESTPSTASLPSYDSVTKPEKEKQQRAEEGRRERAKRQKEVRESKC

Regarding `Fc1cc(-c2cn3c(C(F)(F)F)nnc3cn2)ccc1OC(F)(F)F` [Compound 79], under setting [1], the inhibition at 1 µM is above 70%.
On the same count and under the same terms, the figure for `FC(F)c1nnc2cnc(-c3ccc([C@@H]4CC4(F)F)cc3)cn12` [Compound 167, 6-[4-[(1S)-2,2-difluorocyclopropyl]phenyl]-3-(difluoromethyl)-[1,2,4]triazolo[4,3-a]pyrazine] is 30 to 70%.
Regarding `FC(F)(F)c1nnc2ccc(-c3ccc(C4CC4(F)F)cc3)nn12` (centres unmarked) [Compound 120, 6-[4-(2,2-difluorocyclopropyl)phenyl]-3-(trifluoromethyl)-[1,2,4]triazolo[4,3-b]pyridazine], the inhibition at 1 µM (HEK293, read-out: INaL v1.6 (1 μM, % Inhibition)) was above 70%.
As to `COCc1cc(OC(F)(F)F)ccc1-c1ccc2nnc(C(F)F)n2n1` [Compound 137], the inhibition at 1 µM under setting [1] is 30 to 70%.
`Fc1cc(C(F)(F)F)ccc1-c1cn2c(C(F)(F)F)nnc2cn1` [Compound 76]: the inhibition at 1 µM under setting [1] lay within 30 to 70%.
As for `COc1cc(OC(F)(F)F)ccc1-c1ccc2nnc(C(F)(F)F)n2n1` [Compound 5], the inhibition at 1 µM under setting [1] is above 70%.
The same measure, in the same setting: the figure for `CC(Oc1ncc(-c2cn3c(C(F)(F)F)nnc3cn2)cc1F)C(F)(F)F` (centres unmarked) [Compound 133] is above 70%.
Still for that read-out and setting: the value for `FC(F)(F)Oc1ccc(-c2cc(Cl)c3nnc(C(F)(F)F)n3n2)cc1` [Compound 189] was below 30%.
`Fc1cc(-c2ccc3nnc(C4(F)CC4)n3n2)cnc1OCC(F)(F)F` [Compound 88]: under setting [1], the inhibition at 1 µM lay in the range of 30 to 70%.
On the same count and under the same terms, the value for `COCc1cc(-c2cn3c(C(F)(F)F)nnc3cn2)ccc1C(F)(F)F` [Compound 157] was 30 to 70%; that for `COc1cc(OC(F)(F)F)ccc1-c1ccc2nnc(C(F)(F)OC)n2n1` [Compound 33] was above 70%.
The same measure, in the same setting: the figure for `Fc1cc(-c2ccc3nnc(C4CC(F)(F)C4)n3n2)cnc1OCC(F)(F)F` [Compound 83] is 30 to 70%.
The same measure, in the same setting: the figure for `O=C(O)c1cc(-c2ccc(OC(F)(F)F)cc2)nn2c(C(F)(F)F)nnc12` [Compound 181, 6-[4-(trifluoromethoxy)phenyl]-3-(trifluoromethyl)-[1,2,4]triazolo[4,3-b]pyridazine-8-carboxylic acid] is below 30%.
As to `CC(C)c1nnc2cnc(-c3ccc(OC(F)(F)F)cc3)cn12` [Compound 75], the inhibition at 1 µM under setting [1] is below 30%.
Still for that read-out and setting: the value for `OCc1cc(-c2ccc3nnc(C(F)(F)F)n3n2)ccc1OC(F)(F)F` [Compound 115, [2-(trifluoromethoxy)-5-[3-(trifluoromethyl)-[1,2,4]triazolo[4,3-b]pyridazin-6-yl]phenyl]methanol] was 30 to 70%.
On the same count and under the same terms, the value for `FC(F)c1nnc2cnc(-c3ccc(OC(F)(F)F)cc3)cn12` [Compound 47] was 30 to 70%; that for `Cc1cc(OC2CC(F)(F)C2)ccc1-c1ccc2nnc(C(F)(F)F)n2n1` [Compound 94] was 30 to 70%.
Still for that read-out and setting: the figure for `FC(F)(F)Oc1ccc(-c2cn3c(C[C@H]4CCCCO4)nnc3cn2)cc1` [Compound 129, 3-[[(2R)-tetrahydropyran-2-yl]methyl]-6-[4-(trifluoromethoxy)phenyl]-[1,2,4]triazolo[4,3-a]pyrazine] is below 30%.
Regarding `FC(F)Oc1ccc(-c2ccc3nnc(C(F)(F)F)n3n2)cc1` [Compound 116], the inhibition at 1 µM under setting [1] is above 70%.
As for `FC(F)(F)Oc1ccc(-c2cn3c(C[C@@H]4CCCCO4)nnc3cn2)cc1` [Compound 130, 3-[[(2S)-tetrahydropyran-2-yl]methyl]-6-[4-(trifluoromethoxy)phenyl]-[1,2,4]triazolo[4,3-a]pyrazine], the inhibition at 1 µM under setting [1] lay in the range of 30 to 70%.
On the same count and under the same terms, the value for `COCc1cc(-c2ccc3nnc(C(F)F)n3n2)ccc1OC(F)(F)F` [Compound 146] was 30 to 70%; that for `N#CC1(c2ccc(-c3cn4c(C(F)(F)F)nnc4cn3)cc2)CCC1` [Compound 71] was 30 to 70%; that for `FC(F)c1nnc2ccc(-c3ccc([C@H]4CC4(F)F)cc3)nn12` [Compound 164, 6-[4-[(1R)-2,2-difluorocyclopropyl]phenyl]-3-(difluoromethyl)-[1,2,4]triazolo[4,3-b]pyridazine] was 30 to 70%.
